Biological target: T1, Indoleamine 2,3-dioxygenase (Homo sapiens, UniProt P14902)
T1 construct: endogenous in cells; host or cells: SKOV-3 (ATCC HTB-77), stimulated with interferon gamma
Assay: SKOV-3 cellular Indoleamine 2,3-dioxygenase assay
Conditions: SKOV-3 cells, 50 ng/ml Interferon gamma, 100 μM L-Tryptophan, 24 hours, N-Formylkynurenin fluorescence detection; read-out: cell based activity
In short: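 SKOV-3 cells stimulated with 50 ng/ml interferon gamma, exposed to compound dilutions with L-tryptophan at 100 µM final for 24 h at 37 °C. N-formylkynurenine detected by 200 mM 3-methylpiperidine, 65 °C for 20 min, fluorescence ex 405/em 535 nm.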

T1 sequence (P14902 whole entry): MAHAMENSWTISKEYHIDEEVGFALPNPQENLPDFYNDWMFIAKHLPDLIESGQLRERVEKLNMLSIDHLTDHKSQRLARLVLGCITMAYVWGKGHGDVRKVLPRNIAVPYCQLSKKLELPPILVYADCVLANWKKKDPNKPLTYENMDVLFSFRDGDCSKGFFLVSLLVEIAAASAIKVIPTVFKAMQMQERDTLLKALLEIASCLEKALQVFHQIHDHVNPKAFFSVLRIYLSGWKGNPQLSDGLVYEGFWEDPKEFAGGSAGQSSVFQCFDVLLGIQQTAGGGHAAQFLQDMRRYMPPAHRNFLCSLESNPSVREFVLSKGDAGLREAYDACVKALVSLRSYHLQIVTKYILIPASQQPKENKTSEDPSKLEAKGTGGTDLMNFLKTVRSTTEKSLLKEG

IC50 [nM]	Compound
< 100	CS(=O)(=O)Nc1ccc(C(=O)NCCSc2nonc2C(=NO)Nc2ccc(F)c(C(F)F)c2)cc1 [117/10]
< 100	ON=C(Nc1ccc(F)c(Br)c1)c1nonc1SCC(F)(F)F [Example 103/2]
100 to 1000	O=C(O)CC1CN(CCSc2nonc2C(=NO)Nc2ccc(F)c(C(F)F)c2)C1 [108/2]
< 100	NS(=O)(=O)NCC(=O)NCCSc1nonc1/C(=N/O)Nc1ccc(F)c(C(F)F)c1 [Example 128, N-(2-((4-(N-(3-(Difluoromethyl)-4-fluorophenyl)-N′-hydroxycarbamimidoyl)-1,2,5-oxadiazol-3-yl)thio)ethyl)-2-(sulfamoylamino)acetamide]
< 100	CS(=O)(=O)N1CC(O)(C(=O)NCCSc2nonc2C(=NO)Nc2ccc(F)c(C(F)F)c2)C1 [128/5]
< 100	NC(=O)c1ccc(C(=O)NCCSc2nonc2C(=NO)Nc2ccc(F)c(Cl)c2)cc1 [117/9]
100 to 1000	O=C(NCCSc1nonc1C(=NO)Nc1ccc(F)c(Cl)c1)c1nnn[nH]1 [Example 117, N-(2-((4-(N-(3-Chloro-4-fluorophenyl)-N′-hydroxycarbamimidoyl)-1,2,5-oxadiazol-3-yl)thio)ethyl)-1H-tetrazole-5-carboxamide]
< 100	C[C@H](CSc1nonc1/C(=N/O)Nc1ccc(F)c(Br)c1)NC(=O)CS(N)(=O)=O (single isomer, unassigned) [114/4]
< 100	NS(=O)(=O)N1CC(C(=O)NCCSc2nonc2C(=NO)Nc2ccc(F)c(C(F)F)c2)C1 [128/7]
< 100	NC(=O)CC(=O)NCCSc1nonc1C(=NO)Nc1cccc(C(F)(F)F)c1 [119/1]
> 1000	O=C(NCCOc1nonc1C(=NO)Nc1ccc(F)c(Cl)c1)c1nnn[nH]1 [Example 9, N-(2-((4-(N-(3-chloro-4-fluorophenyl)-N′-hydroxycarbamimidoyl)-1,2,5-oxadiazol-3-yl)oxy)ethyl)-1H-tetrazole-5-carboxamide]
< 100	NS(=O)(=O)c1ccc(C(=O)NCCSc2nonc2C(=NO)Nc2ccc(F)c(C(F)F)c2)cc1 [117/14]
< 100	O=C(NCCSc1nonc1C(=NO)Nc1ccc(F)c(C(F)F)c1)C1CCN1 (centres unmarked) [123/4]
> 1000	CS(=O)(=O)CCOc1nonc1C(=NO)Nc1ccc(F)c(Cl)c1 [Example 20, N-(3-Chloro-4-fluorophenyl)-N′-hydroxy-4-(2-(methylsulfonyl)ethoxy)-1,2,5-oxadiazole-3-carboximidamide]
< 100	NS(=O)(=O)c1ccc(C(=O)NCCSc2nonc2C(=NO)Nc2cccc(C(F)F)c2)cc1 [117/15]
< 100	CC1(O)CN(CCSc2nonc2C(=NO)Nc2ccc(F)c(C(F)F)c2)C1 [Example 108, N-(3-(Difluoromethyl)-4-fluorophenyl)-N′-hydroxy-4-((2-(3-hydroxy-3-methylazetidin-1-yl)ethyl)thio)-1,2,5-oxadiazole-3-carboximidamide]
100 to 1000	NS(=O)(=O)NCCSc1nonc1C(=NO)Nc1ccnc(C(F)(F)F)c1 [Example 112/1, N′—Hydroxy-4-((2-(sulfamoylamino)ethyl)thio)—N-(2-(trifluoromethyl)pyridin-4-yl)-1,2,5-oxadiazole-3-carboximidamide]

IC50 [nM]	Compound
< 100	NC(=O)CC(=O)NCCSc1nonc1C(=NO)Nc1cccc(C(F)F)c1 [119/2]
> 1000	O=S(=O)(Cc1ccccc1)c1nonc1C(=NO)Nc1ccc(F)c(Cl)c1 [Example 104, 4-(Benzylsulfonyl)-N-(3-chloro-4-fluorophenyl)-N′-hydroxy-1,2,5-oxadiazole-3-carboximidamide]
> 1000	ON=C(Nc1ccc(F)c(Br)c1)c1nonc1OCc1ccccc1 [Example 8, 4-(Benzyloxy)-N-(3-bromo-4-fluorophenyl)-N′-hydroxy-1,2,5-oxadiazole-3-carboximidamide]
< 100	NS(=O)(=O)CC(=O)NCCSc1nonc1/C(=N/O)Nc1cccc(C(F)(F)F)c1 [117/13]
100 to 1000	ON=C(Nc1ccc(F)c(Cl)c1)c1nonc1SCc1ccccc1 [Example 103, 4-(Benzylthio)—N-(3-chloro-4-fluorophenyl)-N′-hydroxy-1,2,5-oxadiazole-3-carboximidamide]
< 100	CC(CSc1nonc1C(=NO)Nc1ccc(F)c(C(F)F)c1)NC(=O)CC(N)=O (single isomer, unassigned) [Example 115, N^1-(1-((4-(N-(3-(Difluoromethyl)-4-fluorophenyl)-N′-hydroxycarbamimidoyl)-1,2,5-oxadiazol-3-yl)thio)propan-2-yl)malonamide]
< 100	CCN1CC(O)(C(=O)NCCSc2nonc2C(=NO)Nc2ccc(F)c(C(F)(F)F)c2)C1 [Example 124, 1-Ethyl-N-(2-((4-(N-(4-fluoro-3-(trifluoromethyl)phenyl)-N′-hydroxycarbamimidoyl)-1,2,5-oxadiazol-3-yl)thio)ethyl)-3-hydroxyazetidine-3-carboxamide]
< 100	NS(=O)(=O)N1CC(O)(C(=O)NCCSc2nonc2C(=NO)Nc2ccc(F)c(C(F)F)c2)C1 [128/6]
< 100	NC(CC(=O)NCCSc1nonc1C(=NO)Nc1ccc(F)c(C(F)F)c1)C(F)(F)F (centres unmarked) [123/7]
100 to 1000	O=C(NCCOc1nonc1C(=NO)Nc1ccc(F)c(Cl)c1)C1COCCN1 (centres unmarked) [Example 3, N-(2-((4-(N-(3-Chloro-4-fluorophenyl)-N′-hydroxycarbamimidoyl)-1,2,5-oxadiazol-3-yl)oxy)ethyl)morpholine-3-carboxamide]
< 100	CS(=N)(=O)CC(=O)NCCSc1nonc1C(=NO)Nc1ccc(F)c(C(F)(F)F)c1 (centres unmarked) [127/2]
< 100	NC(=O)NCCOc1nonc1C(=NO)Nc1ccc(F)c(Cl)c1 [Example 5, N-(3-Chloro-4-fluorophenyl)-N′-hydroxy-4-(2-ureidoethoxy)-1,2,5-oxadiazole-3-carboximidamide]
> 1000	O=C(NCCSc1nonc1C(=NO)Nc1ccc(F)c(Cl)c1)c1ccc(NS(=O)(=O)C(F)(F)F)nc1 [117/11]
< 100	CS(=O)(=O)NCC(=O)NCCSc1nonc1C(=NO)Nc1ccc(F)c(C(F)F)c1 [128/2]
100 to 1000	CS(=N)(=O)NCCOc1nonc1C(=NO)Nc1ccc(F)c(Cl)c1 (centres unmarked) [Example 21, N-(3-Chloro-4-fluorophenyl)-N-hydroxy-4-(2-(methylsulfonoamidimidamido)ethoxy)-1,2,5-oxadiazole-3-carboximidamide]
< 100	O=C(NCCSc1nonc1C(=NO)Nc1ccc(F)c(C(F)F)c1)C(O)CO (centres unmarked) [Example 107, N-(2-((4-(N-(3-(Difluoromethyl)-4-fluorophenyl)-N′-hydroxycarbamimidoyl)-1,2,5-oxadiazol-3-yl)thio)ethyl)-2,3-dihydroxypropanamide]

The remaining lines, values behind:

Compound	IC50 [nM]
NS(=O)(=O)CC(=O)NCCSc1nonc1C(=NO)Nc1cncc(C(F)(F)F)c1 [107/34]	> 1000
O=S(=O)(NCCOc1nonc1C(=NO)Nc1ccc(F)c(Cl)c1)C(F)F [1/3]	< 100
O=C(NCCCOc1nonc1C(=NO)Nc1ccc(F)c(Cl)c1)C(O)CO (centres unmarked) [9/7]	100 to 1000
Cc1cccc(NC(=NO)c2nonc2SCCNC(=O)CS(N)(=O)=O)c1 [107/10]	< 100
O=C(NCCOc1nonc1C(=NO)Nc1ccc(F)c(Cl)c1)c1nnc[nH]1 [9/5]	100 to 1000
Nc1c(NCCCOc2nonc2C(=NO)Nc2ccc(F)c(Cl)c2)c(=O)c1=O [2/4]	< 100
CC(C)(C)OC(=O)NC1(C(=O)NCCOc2nonc2C(=NO)Nc2ccc(F)c(Cl)c2)COC1 [9/16]	100 to 1000
CC(C)(O)CC(=O)NCCSc1nonc1/C(=N/O)Nc1ccc(F)c(C(F)F)c1 [107/16]	< 100
O=C(CC1SC(=O)NC1=O)NCCOc1nonc1C(=NO)Nc1ccc(F)c(Cl)c1 (centres unmarked) [9/6]	> 1000
O=C(NCCSc1nonc1C(=NO)Nc1ccc(F)c(C(F)F)c1)c1ccc(C(O)(C(F)(F)F)C(F)(F)F)nc1 [107/30]	< 100
O=C(NCCSc1nonc1C(=NO)Nc1ccc(F)c(C(F)F)c1)C1(O)CCC1 [107/7]	< 100
O=C(NCCSc1nonc1C(=NO)Nc1ccc(F)c(C(F)F)c1)c1ccc(C2(O)COC2)cc1 [107/29]	< 100
NS(=O)(=O)CC(=O)NCCSc1nonc1C(=NO)Nc1cc(F)cc(C(F)F)c1 [107/2]	< 100
N#Cc1cccc(NC(=NO)c2nonc2SCCNC(=O)CCS(N)(=O)=O)c1 [107/13]	< 100
NS(=O)(=O)CC(=O)NCCSc1nonc1/C(=N/O)Nc1cccc(Cl)c1 [107/5]	< 100
O/N=C(\Nc1ccc(F)c(Br)c1)c1nonc1OCC(F)(F)F [8/3, N-(3-Bromo-4-fluorophenyl)-N′-hydroxy-4-(2,2,2-trifluoroethoxy)-1,2,5-oxadiazole-3-carboximidamide]	100 to 1000
CN(C)S(=O)(=O)NCCOc1nonc1C(=NO)Nc1ccc(F)c(Cl)c1 [6/6]	< 100
O=C(NCCOc1nonc1C(=NO)Nc1ccc(F)c(Cl)c1)c1ccc2[nH]ccc2c1 [9/2]	100 to 1000
Nc1c(NCCSc2nsnc2C(=NO)Nc2ccc(F)c(Cl)c2)c(=O)c1=O [102/2]	100 to 1000
CN1CCN(CCOc2nonc2C(=NO)Nc2ccc(F)c(Cl)c2)CC1 [10/1, N-(3-Chloro-4-fluorophenyl)-N′-hydroxy-4-(2-(4-methylpiperazin-1-yl)ethoxy)-1,2,5-oxadiazole-3-carboximidamide]	100 to 1000
O=C(NCCSc1nonc1/C(=N/O)Nc1ccc(F)c(C(F)F)c1)C1CS(=O)(=O)C1 [107/8]	< 100
CC(C)(O)c1ccc(C(=O)NCCSc2nonc2C(=NO)Nc2ccc(F)c(C(F)(F)F)c2)cc1 [107/19]	< 100
N#Cc1cccc(N/C(=N\O)c2nonc2SCCNC(=O)CS(N)(=O)=O)c1 [107/12]	< 100
N#CC1(c2ccc(C(=O)NCCSc3nonc3C(=NO)Nc3ccc(F)c(C(F)F)c3)cc2)CC1 [107/28]	< 100
NC(=O)CCC(=O)NCCSc1nonc1C(=NO)Nc1ccc(F)c(C(F)F)c1 [107/37]	< 100
NS(=O)(=O)CC(=O)NCCSc1nonc1C(=NO)Nc1cc(F)c(F)c(C(F)F)c1 [107/33]	< 100

Reference: patent publication US11078168B2, “Substituted N-hydroxyamidinoheterocycles as modulators of indoleamine 2,3-dioxygenase” (PHENEX DISCOVERY VERWALTUNGS-GMBH, priority 2016, dated 2021)
